Reference: patent publication US7521472B2, “Crystal of two-ring heterocyclic sulfonamide compound” (Eisai R&D Management Co., Ltd., priority 2004, dated 2009)

Assays:
Type in all cases: physicochemical
[1] = Solubility of α-type and β-type crystals in organic solvents and water (USP 25 method); conditions: for Solvent amount (ml) required to solve 1 g of compound (1): 25° C. within 30 minutes
Protocol: (§1) The results are shown in Tables 5 to 8. • (1) Test method:
(§2) The solubility in organic solvents and buffer solutions (Britton-Robinson Buffer: ionic strength (I)=0.3) was examined.
(§3) Specifically, according to the method described in USP 25 (U.S. PHARMACOPEIA 25(USP25), p 8, General Notices, Solubility), crystalline N-(3-chloro-1H-indol-7-yl)-4-sulfamoylbenzenesulfonamide was evaluated in terms of solubility in various organic solvents and Britton-Robinson buffers (pH 3, 5, 7, 9, and 11; I=0.3). The amount of each solvent was recorded that was required to solve a 10-mg sample of (N-(3-chloro-1H-indol-7-yl)-4-sulfamoylbenzenesulfonamide) at 25° C. within 30 minutes. In this study, the container was vigorously shaken for 30 seconds every 5 minutes, and the solubility was visually checked. • (2) Results: […]

[2] = Solubility of α-type and β-type crystals in Britton-Robinson buffers (I=0.3); conditions: for Solvent amount (ml) required to solve 1 g of compound (1): 25° C. within 30 minutes
Protocol: as §1, §2, §3

[3] = Physical properties of the β-type crystal (crystal form stability, hygroscopicity)
[4] = Britton-Robinson Buffer pH 3, I=0.3
[5] = Britton-Robinson Buffer pH 5, I=0.3
[6] = Britton-Robinson Buffer pH 7, I=0.3
[7] = Britton-Robinson Buffer pH 9, I=0.3
[8] = Britton-Robinson Buffer pH 11, I=0.3

| Solvent amount (ml) required to solve 1 g of compound (1) ([1]; 1-octanol) [mL] | Solvent amount (ml) required to solve 1 g of compound (1) ([1]; Acetone) [mL] | Solvent amount (ml) required to solve 1 g of compound (1) ([1]; Acetonitrile) [mL] | Solvent amount (ml) required to solve 1 g of compound (1) ([1]; Ethanol) [mL] | Solvent amount (ml) required to solve 1 g of compound (1) ([1]; Ethyl acetate) [mL] | Solvent amount (ml) required to solve 1 g of compound (1) ([1]; Heptane) [mL] | Solvent amount (ml) required to solve 1 g of compound (1) ([1]; Isopropylether) [mL] | Solvent amount (ml) required to solve 1 g of compound (1) ([1]; Methanol) [mL] | Solvent amount (ml) required to solve 1 g of compound (1) ([1]; N,N-dimethylformamide) [mL] | Solvent amount (ml) required to solve 1 g of compound (1) ([1]; Water) [mL] | Solvent amount (ml) required to solve 1 g of compound (1) [2, 4] [mL] | Solvent amount (ml) required to solve 1 g of compound (1) [2, 5] [mL] | Solvent amount (ml) required to solve 1 g of compound (1) [2, 6] [mL] | Solvent amount (ml) required to solve 1 g of compound (1) [2, 7] [mL] | Solvent amount (ml) required to solve 1 g of compound (1) [2, 8] [mL] | solubility in various organic solvents in comparison with the α-type crystal ([1]; for example, ethanol, ethyl acetate) | solubility in the buffer solution compared with the α-type crystal ([2]; Britton-Robinson Buffer, ionic strength 0.3) | hygroscopicity [3] | stability of the crystal form ([3]; transformation into other crystal forms or amorphous forms) | Compound |
| --- | --- | --- | --- | --- | --- | --- | --- | --- | --- | --- | --- | --- | --- | --- | --- | --- | --- | --- | --- |
| >10000 | 21 | 97 | 1194 | 1090 | >10000 | >10000 | 100.4 | 9.6 | >10000 | >10000 | >10000 | >10000 | >10000 | 993 | – | – | – | – | NS(=O)(=O)c1ccc(S(=O)(=O)Nc2cccc3c(Cl)c[nH]c23)cc1 [compound (1) (α-type crystal), N-(3-chloro-1H-indol-7-yl)-4-sulfamoylbenzenesulfonamide, reference compound] |
| >10000 | 14 | 74 | 373 | 322 | >10000 | >10000 | 60 | 6 | >10000 | >10000 | >10000 | >10000 | >10000 | 553 | high solubility | higher solubility | non hygroscopicity | stable | NS(=O)(=O)c1ccc(S(=O)(=O)Nc2cccc3c(Cl)c[nH]c23)cc1 [compound (1) (β-type crystal), N-(3-chloro-1H-indol-7-yl)-4-sulfamoylbenzenesulfonamide] |
